Measured values taken from publication PMC8296573, “Synthesis and Biological Evaluation of Fingolimod Derivatives as Antibacterial Agents” (ACS Omega, 2021).
In brackets after ≈: the same amount, converted by molar mass. Read-outs that look alike come from different tables or passages of the source.

Tests used:
A. baumannii NCTC 13423 = test: Antibacterial activity, pre-exposure; assay type: cell-based, Acinetobacter baumannii; details: for Average inhibition %, biofilms viability / Average inhibition %, planktonic cells viability / inhibition at 10 µM / inhibition at 15 µM / inhibition at 25 µM / inhibition at 50 µM: A. baumannii NCTC 13423, pre-exposure, ± SD; for inhibition at 10 µM / inhibition at 15 µM / inhibition at 25 µM / inhibition at 50 µM / MIC: Acinetobacter baumannii, NCTC13423
How it was run: (§1)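 Read-outs were turbidity and resazurin reduction for planktonic cells, and resazurin followed by crystal violet biomass (A595) for biofilms. Compounds were present from inoculation onward, with 18 h aerobic growth at 37 °C under shaking.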

S. aureus ATCC 25923 [1] = test: Antibacterial activity, pre-exposure (planktonic cells and biofilm formation); assay type: cell-based, Staphylococcus aureus; details: for MIC / inhibition at 5 µM / inhibition at 10 µM / inhibition at 15 µM / inhibition at 25 µM: Staphylococcus aureus, ATCC25923; for inhibition at 5 µM / inhibition at 10 µM / inhibition at 15 µM / inhibition at 25 µM / Average inhibition %, biofilms viability / Average inhibition %, planktonic cells viability: pre-exposure, ± SD
How it was run: as §1

P. aeruginosa ATCC 9027 = test: Antibacterial activity, pre-exposure; assay type: cell-based, Pseudomonas aeruginosa; details: for Average inhibition %, biofilms viability / Average inhibition %, planktonic cells viability / inhibition at 50 µM / inhibition at 100 µM / inhibition at 150 µM / inhibition at 200 µM: P. aeruginosa ATCC 9027, pre-exposure, ± SD; for MIC / inhibition at 50 µM / inhibition at 100 µM / inhibition at 150 µM / inhibition at 200 µM: Pseudomonas aeruginosa; for inhibition at 50 µM / inhibition at 100 µM / inhibition at 150 µM / inhibition at 200 µM: ATCC9027
How it was run: as §1

S. aureus ATCC 25923 [2] = test: Antibacterial activity, post-exposure on preformed 18-h-old biofilms; assay type: cell-based, Staphylococcus aureus; details: ± SD; for inhibition at 25 µM / inhibition at 50 µM / inhibition at 100 µM / inhibition at 200 µM: Staphylococcus aureus; for inhibition at 25 µM: ATCC25923, 25 µM; for inhibition at 50 µM: ATCC25923, 50 µM; for inhibition at 100 µM: ATCC25923, 100 µM; for inhibition at 200 µM: ATCC25923, 200 µM
How it was run: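 Biofilms grown 18 h without compound, medium then replaced and compound added for a further 24 h. Planktonic OD and resazurin (20 μM final) fluorescence (ex 560/em 590 nm) read; washed biofilms stained with 20 μM resazurin 30 min at 37 °C, then ethanol-fixed and crystal violet-stained, absorbance 595 nm.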

[3] = 10 µM, read-out: Average inhibition %, biofilms biomass
[4] = 10 µM, read-out: Average inhibition %, planktonic cells turbidity
[5] = 15 µM, read-out: Average inhibition %, biofilms biomass
[6] = 15 µM, read-out: Average inhibition %, planktonic cells turbidity
[7] = 25 µM, read-out: Average inhibition %, biofilms biomass
[8] = 25 µM, read-out: Average inhibition %, planktonic cells turbidity
[9] = 50 µM, read-out: Average inhibition %, biofilms biomass
[10] = 50 µM, read-out: Average inhibition %, planktonic cells turbidity
[11] = read-out: Average inhibition %, biofilms biomass
[12] = read-out: Average inhibition %, planktonic cells turbidity

CCCCCCCCCCc1ccc(CCC(N)(CO)CO)nc1 [Compound 62, 2-Amino-2-[2-(5-decylpyridin-2-yl)ethyl]propane-1,3-diol] was tested, and the “Average inhibition %, biofilms viability” value (A. baumannii NCTC 13423; 10 µM) was 40 ± 33.9%, the “Average inhibition %, planktonic cells viability” value (A. baumannii NCTC 13423; 10 µM) was 37.7 ± 25.3% and the “Average inhibition %, biofilms viability” value (A. baumannii NCTC 13423; 15 µM) was 100.5 ± 1%. For the same compound, the “Average inhibition %, planktonic cells viability” value (A. baumannii NCTC 13423; 15 µM) was 99.8 ± 0.4%, the “Average inhibition %, biofilms viability” value (A. baumannii NCTC 13423; 25 µM) was 101.2 ± 1.3% and the “Average inhibition %, planktonic cells viability” value (A. baumannii NCTC 13423; 25 µM) was 99.7 ± 0.3%. The “Average inhibition %, biofilms viability” value (A. baumannii NCTC 13423; 50 µM) was 101.3 ± 1.2%, the “Average inhibition %, planktonic cells viability” value (A. baumannii NCTC 13423; 50 µM) was 99.7 ± 0.2% and the inhibition at 10 µM (A. baumannii NCTC 13423; [3]) was 21.3 ± 18.9%. It also gave an inhibition at 10 µM (A. baumannii NCTC 13423; [4]) of 46 ± 39.6%, an inhibition at 15 µM (A. baumannii NCTC 13423; [5]) of 85.4 ± 2% and an inhibition at 15 µM (A. baumannii NCTC 13423; [6]) of 99.3 ± 0.9%. The inhibition at 25 µM (A. baumannii NCTC 13423; [7]) was 83.1 ± 3%, the inhibition at 25 µM (A. baumannii NCTC 13423; [8]) was 99.2 ± 0.9% and the inhibition at 50 µM (A. baumannii NCTC 13423; [9]) was 79 ± 9.4%. It also gave an inhibition at 50 µM (A. baumannii NCTC 13423; [10]) of 98.8 ± 0.9%, an MIC (A. baumannii NCTC 13423; pre-exposure, Inactive = no activity up to 50 μM, > = some inhibition but no MIC reached, read-out: MIC A. baumannii NCTC 13423) of 15 µM (≈ 5.05 µg/mL) and an MIC (A. baumannii NCTC 13423; supplementary molecular formula strings sheet, read-out: MIC (A. baumannii)) of 15 µM (≈ 5.05 µg/mL). It also gave an MIC (S. aureus ATCC 25923 [1]; lowest concentration with no visible growth (>90% inhibition of turbidity and viability of planktonic cells), 18 h, read-out: MIC S. aureus ATCC 25923) of 15 µM (≈ 5.05 µg/mL), an inhibition at 5 µM (S. aureus ATCC 25923 [1]; 5 µM, read-out: Average inhibition %, biofilms biomass) of 34.5 ± 10.1% and an inhibition at 5 µM (S. aureus ATCC 25923 [1]; 5 µM, read-out: Average inhibition %, planktonic cells turbidity) of 9.5 ± 10.5%. The inhibition at 10 µM (S. aureus ATCC 25923 [1]; [3]) was 46 ± 8%, the inhibition at 10 µM (S. aureus ATCC 25923 [1]; [4]) was 15.6 ± 7.5% and the inhibition at 15 µM (S. aureus ATCC 25923 [1]; [5]) was 91.8 ± 5.5%. The inhibition at 15 µM (S. aureus ATCC 25923 [1]; [6]) was 85.8 ± 12.4%, the inhibition at 25 µM (S. aureus ATCC 25923 [1]; [7]) was 94.8 ± 1.6% and the inhibition at 25 µM (S. aureus ATCC 25923 [1]; [8]) was 99.1 ± 0.7%. The MIC (S. aureus ATCC 25923 [1]; read-out: MIC (S. aureus)) was 15 µM (≈ 5.05 µg/mL), the “MIC S. aureus ATCC 25923” value (S. aureus ATCC 25923 [1]; lowest concentration with no visible growth (>90% inhibition of turbidity and viability of planktonic cells), 18 h) was “same MIC as fingolimod” and the “Average inhibition %, biofilms viability” value (S. aureus ATCC 25923 [1]; 5 µM) was 23.3 ± 7.1%. For the same compound, the “Average inhibition %, planktonic cells viability” value (S. aureus ATCC 25923 [1]; 5 µM) was 0 ± 0%, the “Average inhibition %, biofilms viability” value (S. aureus ATCC 25923 [1]; 10 µM) was 35.7 ± 5.8% and the “Average inhibition %, planktonic cells viability” value (S. aureus ATCC 25923 [1]; 10 µM) was 0 ± 0%. The “Average inhibition %, biofilms viability” value (S. aureus ATCC 25923 [1]; 15 µM) was 95.2 ± 3.8%, the “Average inhibition %, planktonic cells viability” value (S. aureus ATCC 25923 [1]; 15 µM) was 92.4 ± 6.5% and the “Average inhibition %, biofilms viability” value (S. aureus ATCC 25923 [1]; 25 µM) was 99.6 ± 0.2%. The “Average inhibition %, planktonic cells viability” value (S. aureus ATCC 25923 [1]; 25 µM) was 100 ± 0.1%, the “Average inhibition %, biofilms viability” value (P. aeruginosa ATCC 9027; 50 µM) was 13.5 ± 11.7% and the “Average inhibition %, planktonic cells viability” value (P. aeruginosa ATCC 9027; 50 µM) was 18.7 ± 18.1%. For the same compound, the “Average inhibition %, biofilms viability” value (P. aeruginosa ATCC 9027; 100 µM) was 13.6 ± 3.2%, the “Average inhibition %, planktonic cells viability” value (P. aeruginosa ATCC 9027; 100 µM) was 39.6 ± 45.8% and the “Average inhibition %, biofilms viability” value (P. aeruginosa ATCC 9027; 150 µM) was 27.7 ± 14.8%. The “Average inhibition %, planktonic cells viability” value (P. aeruginosa ATCC 9027; 150 µM) was 76.3 ± 19.2%, the “Average inhibition %, biofilms viability” value (P. aeruginosa ATCC 9027; 200 µM) was 61.8 ± 34.8% and the “Average inhibition %, planktonic cells viability” value (P. aeruginosa ATCC 9027; 200 µM) was 94.7 ± 4.6%. The MIC (P. aeruginosa ATCC 9027; ATCC9027, pre-exposure, Inactive = no activity up to 200 μM, > = some inhibition but no MIC reached, read-out: MIC P. aeruginosa ATCC 9027) was > 200 µM, the MIC (P. aeruginosa ATCC 9027; ATCC9027, supplementary molecular formula strings sheet, read-out: MIC (P. aeruginosa)) was > 200 µM and the inhibition at 50 µM (P. aeruginosa ATCC 9027; [9]) was 19.7 ± 9.7%. The inhibition at 50 µM (P. aeruginosa ATCC 9027; [10]) was 35.6 ± 9.3%, the inhibition at 100 µM (P. aeruginosa ATCC 9027; 100 µM, read-out: Average inhibition %, biofilms biomass) was 18.6 ± 19.2% and the inhibition at 100 µM (P. aeruginosa ATCC 9027; 100 µM, read-out: Average inhibition %, planktonic cells turbidity) was 58 ± 23%. The inhibition at 150 µM (P. aeruginosa ATCC 9027; 150 µM, read-out: Average inhibition %, biofilms biomass) was 21 ± 3.9%, the inhibition at 150 µM (P. aeruginosa ATCC 9027; 150 µM, read-out: Average inhibition %, planktonic cells turbidity) was 84.5 ± 4.1% and the inhibition at 200 µM (P. aeruginosa ATCC 9027; 200 µM, read-out: Average inhibition %, biofilms biomass) was 38.5 ± 47.1%. For the same compound, the inhibition at 200 µM (P. aeruginosa ATCC 9027; 200 µM, read-out: Average inhibition %, planktonic cells turbidity) was 92.5 ± 5%, the “Average inhibition %, biofilms viability” value (S. aureus ATCC 25923 [2]; 25 µM) was 12.6 ± 12.7% and the “Average inhibition %, planktonic cells viability” value (S. aureus ATCC 25923 [2]; 25 µM) was 0 ± 0%. For the same compound, the “Average inhibition %, biofilms viability” value (S. aureus ATCC 25923 [2]; 50 µM) was 37.2 ± 4.9%, the “Average inhibition %, planktonic cells viability” value (S. aureus ATCC 25923 [2]; 50 µM) was 0 ± 0% and the “Average inhibition %, biofilms viability” value (S. aureus ATCC 25923 [2]; 100 µM) was 56.4 ± 12%. The “Average inhibition %, planktonic cells viability” value (S. aureus ATCC 25923 [2]; 100 µM) was 55.8 ± 42.1%, the “Average inhibition %, biofilms viability” value (S. aureus ATCC 25923 [2]; 200 µM) was 99.3 ± 0.3% and the “Average inhibition %, planktonic cells viability” value (S. aureus ATCC 25923 [2]; 200 µM) was 100.1 ± 0.1%. It also gave an inhibition at 25 µM (S. aureus ATCC 25923 [2]; [11]) of 43.1 ± 11%, an inhibition at 25 µM (S. aureus ATCC 25923 [2]; [12]) of 15.7 ± 12.5% and an inhibition at 50 µM (S. aureus ATCC 25923 [2]; [11]) of 63.9 ± 10.9%. The inhibition at 50 µM (S. aureus ATCC 25923 [2]; [12]) was 16.7 ± 24.2%, the inhibition at 100 µM (S. aureus ATCC 25923 [2]; [11]) was 76.2 ± 5.6% and the inhibition at 100 µM (S. aureus ATCC 25923 [2]; [12]) was 57.6 ± 29.3%. It also gave an inhibition at 200 µM (S. aureus ATCC 25923 [2]; [11]) of 80.8 ± 3.8% and an inhibition at 200 µM (S. aureus ATCC 25923 [2]; [12]) of 89.9 ± 1.7%.
